Assay results from US7786141B2 (Vertex Pharmaceuticals Incorporated, priority 2004, dated 2010).
Where two headings read alike, the source gives them in different places.

Assays:
M4 muscarinic receptor = target: T1, M4 muscarinic receptor (Homo sapiens, UniProt P08173); experiment: Functional mobilization of intracellular calcium (FLIPR) in M4-CHO cells; format: cell-based
T1 construct: expressed in transfected cells; host or cells: CHO (M4-CHO)
T1 sequence (P08173 1-479): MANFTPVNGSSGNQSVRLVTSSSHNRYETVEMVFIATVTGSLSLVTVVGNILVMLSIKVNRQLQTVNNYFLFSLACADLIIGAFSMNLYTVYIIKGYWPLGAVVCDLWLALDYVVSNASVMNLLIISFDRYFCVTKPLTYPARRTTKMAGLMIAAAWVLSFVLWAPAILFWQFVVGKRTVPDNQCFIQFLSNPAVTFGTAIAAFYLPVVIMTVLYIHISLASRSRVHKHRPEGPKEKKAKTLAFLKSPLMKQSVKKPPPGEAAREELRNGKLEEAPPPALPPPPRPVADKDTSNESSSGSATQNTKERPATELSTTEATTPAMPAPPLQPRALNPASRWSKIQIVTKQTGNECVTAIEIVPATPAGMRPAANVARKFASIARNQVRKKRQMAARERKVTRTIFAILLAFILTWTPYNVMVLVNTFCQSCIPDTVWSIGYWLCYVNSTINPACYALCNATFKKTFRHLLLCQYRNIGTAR
Outline: (§1)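 FLIPR Ca2+ read, ex 488/em 540 nm, 60 s. Recombinant CHO lines (M1 or M4), dye-loaded Fluo-3 AM 60-90 min at 37° C, probenecid 1 mM, pH 7.4. Agonist: compound alone; inhibition: 15 min compound pre-incubation, then carbachol at EC80 for that subtype.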

M1 muscarinic receptor = target: T2, M1 muscarinic receptor (Homo sapiens, UniProt P11229); experiment: Functional mobilization of intracellular calcium (FLIPR) in M1-CHO cells; format: cell-based
T2 construct: expressed in transfected cells; host or cells: CHO (M1-CHO)
T2 sequence (P11229 1-460): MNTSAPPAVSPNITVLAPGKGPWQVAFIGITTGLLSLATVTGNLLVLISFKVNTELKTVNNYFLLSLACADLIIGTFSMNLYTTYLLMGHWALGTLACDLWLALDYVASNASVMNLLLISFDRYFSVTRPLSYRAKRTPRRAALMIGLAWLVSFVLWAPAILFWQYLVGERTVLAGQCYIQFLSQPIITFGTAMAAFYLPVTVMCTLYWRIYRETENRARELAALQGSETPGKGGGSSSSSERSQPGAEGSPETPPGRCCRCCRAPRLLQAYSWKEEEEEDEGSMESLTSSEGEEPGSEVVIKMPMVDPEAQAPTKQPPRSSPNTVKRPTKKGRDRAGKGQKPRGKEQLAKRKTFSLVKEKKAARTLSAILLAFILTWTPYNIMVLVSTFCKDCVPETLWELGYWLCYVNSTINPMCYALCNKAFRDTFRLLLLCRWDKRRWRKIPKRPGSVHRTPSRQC
Outline: as §1

[1] = M4 receptor, calcium mobilization
[2] = M4 receptor, calcium mobilization, read-out: M4 Efficacy
[3] = M1 receptor, calcium mobilization
[4] = M1 receptor, calcium mobilization, read-out: M1 Efficacy
[5] = Table 4, 100% efficacy is the maximum response obtained with the Carbachol control
[6] = Table 4, M4 receptor, calcium mobilization (FLIPR)
[7] = Table 4, M1 receptor, calcium mobilization (FLIPR)
[8] = Table 4, modulating M4 receptor
[9] = Table 4, modulating M1 receptor

| SMILES | M4 Activity (M4 muscarinic receptor; [1]) | Emax (M4 muscarinic receptor; [2]) | M1 Activity (M1 muscarinic receptor; [3]) | Emax (M1 muscarinic receptor; [4]) | Emax (M4 muscarinic receptor; [5]) | Emax (M1 muscarinic receptor; [5]) | M4 Activity (M4 muscarinic receptor; [8]) | M1 Activity (M1 muscarinic receptor; [9]) | other results |
| --- | --- | --- | --- | --- | --- | --- | --- | --- | --- |
| Cc1ccc2c(c1)C1(CCN(CC3CCC4CCC3C4)CC1)CN2 (stereo not shown) [compound 241] | x (activity was measured to be greater than 1.0 μM) | > 85% | xx (activity was measured to be between 0.1 μM and 1.0 μM) | < 65% |  |  |  |  |  |
| CC#CCN1CC2(CCN(C3CCN(C(=O)OCC)CC3)CC2)c2cc(F)ccc21 [compound 844] |  |  |  |  | 25 to 100% | 25 to 100% |  |  | M4 Activity (M4 muscarinic receptor; [6]): xxx (activity was measured to be less than 2.0 μM); M1 Activity (M1 muscarinic receptor; [7]): xxx (activity was measured to be less than 2.0 μM) |
| C=Cc1ccc2c(c1)C1(CCN(C3CCN(C(=O)OCC)CC3)CC1)CN2C(C)=O [compound 11] | x (activity was measured to be greater than 1.0 μM) | < 65% | x (activity was measured to be greater than 1.0 μM) | < 65% |  |  |  |  |  |
| COC(=O)N1C2CCC1CC(N1CCC3(CC1)COc1ccc(F)cc13)C2 (stereo not shown) [compound 156] | xxx (activity was measured to be less than 0.1 μM) | > 85% | xxx (activity was measured to be less than 0.1 μM) | 65 to 85% |  |  |  |  |  |
| CC#CCOC(=O)N1CC[C@@H](CN2CCC3(CC2)CN(C(C)=O)c2cccc(C)c23)C1 [compound 929] |  |  |  |  | 25 to 100% | 25 to 100% |  |  | M4 Activity (M4 muscarinic receptor; [6]): xxx (activity was measured to be less than 2.0 μM); M1 Activity (M1 muscarinic receptor; [7]): xxx (activity was measured to be less than 2.0 μM) |
| CCOC(=O)N1C2CCC1CC(N1CCC3(CC1)CN(C(=O)C1CC1)c1ccc(F)cc13)C2 (stereo not shown) [compound 214] | x (activity was measured to be greater than 1.0 μM) | < 65% | x (activity was measured to be greater than 1.0 μM) | < 65% |  |  |  |  |  |
| c1ccc2c(c1)CCCC21CCN(C2C[C@@H]3CC[C@H]2C3)CC1 (stereo partly shown) [compound 642] |  |  |  |  | > 100% | 25 to 100% | xxx (activity was measured to be less than 2.0 μM) | x (activity was measured to be greater than 5.0 μM) |  |
| O=C(OC1CCC1)N1C2CCC1CC(N1CCC3(CC1)C(=O)Nc1ccccc13)C2 (stereo not shown) [compound 217] | x (activity was measured to be greater than 1.0 μM) | < 65% | xx (activity was measured to be between 0.1 μM and 1.0 μM) | < 65% |  |  |  |  |  |
| CC(=O)N1CC2(CCN(C3CCOCC3)CC2)c2cc(F)ccc21 [compound 268] | x (activity was measured to be greater than 1.0 μM) | < 65% | x (activity was measured to be greater than 1.0 μM) | < 65% |  |  |  |  |  |
| CC(=O)N[C@@H]1CCC2(CCN(C3CCCCCC3)CC2)c2ccccc21 [compound 666] |  |  |  |  | 25 to 100% | < 25% | xxx (activity was measured to be less than 2.0 μM) | x (activity was measured to be greater than 5.0 μM) |  |
| Clc1ccc2c(c1)C1(CCN(C3CCCCC3)CC1)CN2 [compound 155] | x (activity was measured to be greater than 1.0 μM) | > 85% | xxx (activity was measured to be less than 0.1 μM) | > 85% |  |  |  |  |  |
| CCC(=O)N1CCC(N2CCC3(CC2)CN(C(=O)N(C)C)c2ccc(F)cc23)CC1 [compound 464] |  |  |  |  | 25 to 100% | 25 to 100% | xx (activity was measured to be between 2.0 μM and 5.0 μM) | xx (activity was measured to be between 2.0 μM and 5.0 μM) |  |
| CCOC(=O)N1C2CCC1CC(N1CCC3(CC1)CN(C(C)=O)c1ccc(Cl)cc13)C2 (stereo not shown) [compound 417] |  |  |  |  |  |  |  |  | EC50 (M4 muscarinic receptor; M4-CHO cells, calcium mobilization (FLIPR)): > 1 µM; Emax (M4 muscarinic receptor; M4-CHO cells, calcium mobilization (FLIPR), read-out: M4 Efficacy): < 65%; EC50 (M1 muscarinic receptor; M1-CHO cells, calcium mobilization (FLIPR)): 0.1 to 1 µM; Emax (M1 muscarinic receptor; M1-CHO cells, calcium mobilization (FLIPR), read-out: M1 Efficacy): < 65% |
| COCCOC(=O)N1C2CCC1CC(N1CCC3(CC1)CN(C(=O)O[C@@H]1CCOC1)c1ccc(F)cc13)C2 (stereo partly shown) [compound 216] | x (activity was measured to be greater than 1.0 μM) |  | xxx (activity was measured to be less than 0.1 μM) |  |  |  |  |  | M4 Efficacy (M4 muscarinic receptor; [1]): x (efficacy was calculated to be less than 65%); M1 Efficacy (M1 muscarinic receptor; [3]): xxx (efficacy was calculated to be greater than 85%) |
| CN(C)C(=O)N1CC2(CCN(C[C@@H]3CCN(c4cnccn4)C3)CC2)c2cc(F)ccc21 [compound 608] |  |  |  |  | 25 to 100% | 25 to 100% | xxx (activity was measured to be less than 2.0 μM) | xxx (activity was measured to be less than 2.0 μM) |  |
| CN(C)C(=O)N1CC2(CCN(C3CC4CCC(C3)N4C(=O)OCCF)CC2)c2cc(F)ccc21 (stereo not shown) [compound 32] | xxx (activity was measured to be less than 0.1 μM) | 65 to 85% | xxx (activity was measured to be less than 0.1 μM) | > 85% |  |  |  |  |  |
| COC(=O)N1CCC(N2CCC3(CC2)CN(C(C)=O)c2ccccc23)CC1 [compound 753] |  |  |  |  | 25 to 100% | 25 to 100% | xx (activity was measured to be between 2.0 μM and 5.0 μM) | xx (activity was measured to be between 2.0 μM and 5.0 μM) |  |
| CC#CC(C)OC(=O)N1CC[C@H](CN2CCC3(CC2)CN(C(=O)N(C)C)c2ccc(F)cc23)C1 (stereo partly shown) [compound 485] |  |  |  |  | < 25% | 25 to 100% | xxx (activity was measured to be less than 2.0 μM) | xx (activity was measured to be between 2.0 μM and 5.0 μM) |  |
| CCC#CCOC(=O)N1CCC(N2CCC3(CC2)CN(C(C)=O)c2cccc(C)c23)CC1 [compound 825] |  |  |  |  | < 25% | 25 to 100% |  |  | M4 Activity (M4 muscarinic receptor; [6]): x (activity was measured to be greater than 5.0 μM); M1 Activity (M1 muscarinic receptor; [7]): xxx (activity was measured to be less than 2.0 μM) |
| O=C1CC2(CCN([C@@H]3C[C@H]4CC[C@@H]3C4)CC2)c2ccccc21 [compound 732] |  |  |  |  | 25 to 100% | 25 to 100% | xx (activity was measured to be between 2.0 μM and 5.0 μM) | x (activity was measured to be greater than 5.0 μM) |  |
| CCOC(=O)N1CCC(N2CCC3(CC2)CN(C(C)=O)c2c(-c4ccc(OC)cc4)cccc23)CC1 [compound 434] |  |  |  |  | 25 to 100% | 25 to 100% | xxx (activity was measured to be less than 2.0 μM) | x (activity was measured to be greater than 5.0 μM) |  |
| O=C(C1CCC1)N1CC2(CCN(C3CC4CCC(C3)N4C(=O)O[C@@H]3CCOC3)CC2)c2cc(F)ccc21 (stereo partly shown) [compound 69] | xx (activity was measured to be between 0.1 μM and 1.0 μM) | < 65% | xx (activity was measured to be between 0.1 μM and 1.0 μM) | < 65% |  |  |  |  |  |
| CCOC(=O)N1CCC(N2CCC3(CC2)CN(C(C)=O)c2ccc(F)cc23)C1 (stereo not shown) [compound 113] | x (activity was measured to be greater than 1.0 μM) | < 65% | xxx (activity was measured to be less than 0.1 μM) | 65 to 85% |  |  |  |  |  |
| COCCOC(=O)N1C2CCC1CC(N1CCC3(CCc4ccccc43)CC1)C2 (stereo not shown) [compound 95] | xx (activity was measured to be between 0.1 μM and 1.0 μM) | < 65% | xxx (activity was measured to be less than 0.1 μM) | 65 to 85% |  |  |  |  |  |
| CCCOC(=O)N1CC2(CCN(C3CCN(C(=O)OCC)CC3)CC2)c2cc(F)ccc21 [compound 114] | x (activity was measured to be greater than 1.0 μM) | < 65% | xx (activity was measured to be between 0.1 μM and 1.0 μM) | 65 to 85% |  |  |  |  |  |
